Test results published in US20220040263A1, “COMPANION DIAGNOSTIC FOR COMBINATION LENALIDOMIDE AND ERYTHROPOIETIN TREATMENT” (H. Lee Moffitt Cancer Center and Research Institute, Inc., priority 2016, published 2022).
Like-named read-outs stand apart in the source and are kept apart here.

Experiments:
UT-7 cells = test: UT7 colony forming assay with or without EPO; type: cell-based
Method: FIGS. 1A and 1B show Lenalidomide potentiates clonogenic response to […]. […] Colonies were scored after 14 days incubation and the growth of bone marrow colony-forming unit granulocyte, erythroid, macrophage, megakaryocyte (CFU-GEMM); burst-forming unit-erythroid (BFU-E); and colony-forming unit granulocyte-macrophage (CFU-GM) assessed. […] Cells were then plated in methylcellulose+10% FBS, 2000 cells/well, with or without erythropoietin (EPO). Colonies were scored at day seven.
When UT7 cells were exposed to lenalidomide prior to culture initiation with EPO, supra-additive colony forming capacity was observed that exceeded growth induced by EPO and/or lenalidomide treatments [P=0.001].

U937 (non-del5q) cells = test: Apoptosis by Annexin-V/PI flow cytometry in U937 cells; type: cell-based; conditions: 24 hours, all concentrations
Method: AML-EH5q (FIG. 8A) and U937 (FIG. 8B) cells were exposed to lenalidomide, thalidomide or vehicle at the concentrations indicated for 24 hours in IMDM and 20% FBS and apoptosis assessed by flow cytometry using Annexin-V/PI staining. Briefly, cells are incubated for 20 minutes at room temperature in 50 mM HEPES (pH 7.4) and 150 mM NaCl containing 2 mM calcium chloride with a mixture of 1 μg/mLAnnexin V-FITC (Boehringer Mannhein, Mannhein, Germany) and 2.5 μg/mL propidium iodide (PI; Sigma-Aldrich) before analysis.
The hematologic effects of lenalidomide could derive from dual effects that are karyotype-dependent, i.e., (1) the potentiation of erythropoiesis in non-del5q erythroid precursors, and (2) selective suppression of del5q clones. To confirm that lenalidomide is selectively cytotoxic to del-5q clones, an AML cell line transformed from an MDS patient with isolated 5q31 deletion was cultivated and the cell line successfully maintained in suspension culture with recombinant myeloid growth factor supplementation. This cell line [designated AML-EH5q] is an AML cell line that harbors the isolated 5q-deletion. […] To evaluate the selectivity of lenalidomide cytotoxic for del5q clones, apoptotic response to lenalidomide and thalidomide was compared in AML-EH5q and U937 (non-del5q) cells by flow cytometry. […] Viability was unaffected at all concentrations for both agents in U937 cells.

[1] = test system: azanucleoside-naive, transfusion-dependent LR, non-del(5q) MDS patients; conditions: cited from earlier work
c-Src = c-Src activation (p-Src416, p-Src527, Bcl-XL) in UT7 cells by Western immunoblot; type: cell-based
Text: FIGS. 5A and 5B show lenalidomide potentiates c-Src activation. […] Cells were lysed and assayed for β-actin (Sigma), or Src, p-Src416, p-Src 527 and Bcl-XL (Cell Signaling) by Western immunoblot. Protein loading was normalized to β-actin. Relative Src activation in FIG. 5B represents the ratio of p-Src416 (activation site phosphorylation) to p-Src527 (C-terminal inhibitory p-tyrosine).
To confirm that EPO-R signal potentiation by lenalidomide is associated with activation of Src and Lyn kinases, Src activation was evaluated using phospho-tyrosine specific antibodies that recognize either the activation loop tyrosine (Tyr416) or the C-terminal inhibitory tyrosine (Tyr527) of c-Src. Lenalidomide alone increased phosphorylation of Tyr416 by 50% compared to the vehicle treated control [FIG. 5].

STAT5 = STAT5 DNA binding by EMSA in UT7 nuclear extracts; type: cell-based; conditions: combined lenalidomide and EPO treatment

STAT5 DNA binding (nuclear translocation) (STAT5): greater DNA binding
Compound: Nc1cccc2c1CN(C1CCC(=O)NC1=O)C2=O (stereo not shown) [lenalidomide, 3-(4-amino-1-oxo-1,3-dihydro-2H-isoindol-2-yl)piperidine-2,6-dione]
colony forming capacity (UT-7 cells; UT7 cells exposed to lenalidomide prior to culture initiation with EPO, P=0.001): supra-additive | colony forming capacity (UT-7 cells; lenalidomide 1 μM alone, UT7 cells): minimal effect | viability / apoptosis (U937 (non-del5q) cells): unaffected | RBC transfusion-independence ([1]; MDS-002 and MDS-005 trials): 26% | median duration of RBC transfusion-independence ([1]; MDS-002 trial): 10.2 months | median duration of RBC transfusion-independence ([1]; MDS-005 trial): 7.75 months | increase in phosphorylation of Src Tyr416 compared to the vehicle treated control (c-Src; lenalidomide alone): 50% | Src activation compared to the vehicle control (c-Src; lenalidomide combined with EPO, supra-additive): ~3 fold | EPO-dependent induction of Bcl-XL (c-Src; lenalidomide pre-treatment): augmented
